Test results as given in US11827616B2, “Heterocyclic compounds as pesticides” (Discovery Purchaser Corporation, priority 2018, dated 2023).
Where two headings read alike, the source gives them in different places.

Tests used:
Format in all cases: in vivo
Rhipicephalus sanguineus = Rhipicephalus sanguineus in vitro contact test with adult brown dog ticks; conditions: application rate 5 μg/cm^2 (=500 g/ha); after 48 h
Procedure: Rhipicephalus sanguineus—In Vitro Contact Tests with Adult Brown Dog Ticks
(§1) For the coating of the test tubes, 9 mg of active compound are first dissolved in 1 ml of acetone p.a. and then diluted to the desired concentration with acetone p.a. 250 μl of the solution are distributed homogeneously on the inner walls and the base of a 25 ml glass tube by turning and rocking on an orbital shaker (rocking rotation at 30 rpm for 2 h). With 900 ppm of active compound solution and internal surface area 44.7 cm^2, given homogeneous distribution, an area-based dose of 5 μg/cm^2 is achieved.
After the solvent has evaporated off, the tubes are populated with 5-10 adult dog ticks (Rhipicephalus sanguineus), sealed with a perforated plastic lid and incubated in a horizontal position in the dark at room temperature and ambient humidity. After 48 h, efficacy is determined. To this end, the ticks are knocked to the base of the tube and incubated on a hotplate at 45-50° C. for not more than 5 min. Ticks which remain motionless on the base or move in such an uncoordinated manner that they are unable to deliberately avoid the heat by climbing upwards are considered to be dead or moribund.
An efficacy of 100% means that all the ticks were dead or moribund. 0% efficacy means that none of the ticks were harmed.

Boophilus microplus = Boophilus microplus injection test; conditions: for pest or weed control at 0.02 mg: Rhipicephalus microplus, 168 h
Procedure: Boophilus microplus—Injection Test
(§2) Solvent: dimethyl sulfoxide
To produce a suitable active compound formulation, 10 mg of active compound are mixed with 0.5 ml of solvent and the concentrate is diluted to the desired concentration with solvent.
1 μl of the active compound solution is injected into the abdomen of 5 engorged adult female cattle ticks (Boophilus microplus). The animals are transferred into dishes and kept in a climate-controlled room.
Efficacy is assessed after 7 days by laying of fertile eggs. Eggs which are not visibly fertile are stored in a climate-controlled cabinet until the larvae hatch after about 42 days. An efficacy of 100% means that none of the ticks has laid any fertile eggs; 0% means that all the eggs are fertile.

Lucilia cuprina = Lucilia cuprina test; conditions: application rate 100 ppm; L1 larvae; after 2 days
Procedure: as §2
To produce a suitable active compound formulation, 10 mg of active compound are mixed with 0.5 ml of dimethyl sulfoxide, and the concentrate is diluted with water to the desired concentration.
About 20 L1 larvae of the Australian sheep blowfly (Lucilia cuprina) are transferred into a test vessel containing minced horsemeat and the active compound formulation of the desired concentration.
After 2 days, the kill in % is determined. 100% means that all the larvae have been killed; 0% means that no larvae have been killed.

Phaedon cochleariae = Phaedon cochleariae spray test; conditions: for pest or weed control at 500 g/ha: Phaedon cochleariae, 168 h, read-out: efficacy
Procedure: Phaedon cochleariae—Spray Test
(§3) Solvent: 78.0 parts by weight of acetone • • 1.5 parts by weight of dimethylformamide
(§4) Emulsifier: alkylaryl polyglycol ether
(§5) To produce a suitable active compound formulation, 1 part by weight of active compound is dissolved with the specified parts by weight of solvent and made up to the desired concentration with water containing an emulsifier concentration of 1000 ppm. To produce further test concentrations, the formulation is diluted with emulsifier-containing water.
Discs of Chinese cabbage leaves (Brassica pekinensis) are sprayed with an active compound formulation of the desired concentration and, after drying, populated with larvae of the mustard beetle (Phaedon cochleariae).
After 7 days, the efficacy in % is determined. 100% means that all the beetle larvae have been killed; 0% means that no beetle larvae have been killed.

Spodoptera frugiperda = Spodoptera frugiperda spray test; conditions: for pest or weed control at 500 g/ha: Spodoptera frugiperda, 168 h, read-out: efficacy
Procedure: Spodoptera frugiperda—Spray Test
as §3, §4, §5
Leaf discs of maize (Zea mays) are sprayed with an active compound formulation of the desired concentration and, after drying, populated with caterpillars of the fall armyworm (Spodoptera frugiperda).
After 7 days, the efficacy in % is determined. 100% means that all the caterpillars have been killed; 0% means that no caterpillar has been killed.

Tetranychus urticae = Tetranychus urticae spray test, OP-resistant; conditions: application rate 500 g/ha; after 6 days
Procedure: Tetranychus urticae—Spray Test, OP-Resistant
Solvent: 78.0 Parts by Weight of Acetone • • 1.5 parts by weight of dimethylformamide
as §4, §5
Discs of bean leaves (Phaseolus vulgaris) infested with all stages of the greenhouse red spider mite (Tetranychus urticae) are sprayed with an active compound formulation of the desired concentration.
After 6 days, the efficacy in % is determined. 100% means that all the spider mites have been killed; 0% means that no spider mites have been killed.

Ctenocephalides felis = Ctenocephalides felis in vitro contact test with adult cat fleas; conditions: application rate 5 μg/cm^2 (=500 g/ha); after 48 h
Procedure: Ctenocephalides felis—In Vitro Contact Tests with Adult Cat Fleas
as §1
After the solvent has evaporated off, the tubes are populated with 5-10 adult cat fleas (Ctenocephalides felis), sealed with a perforated plastic lid and incubated in a horizontal position at room temperature and ambient humidity. After 48 h, efficacy is determined. To this end, the tubes are stood upright and the fleas are knocked to the base of the tube. Fleas which remain motionless at the base or move in an uncoordinated manner are considered to be dead or moribund.
100% efficacy means that all the fleas were dead or moribund. 0% efficacy means that no fleas were harmed.

[1] = application rate 20 μg/animal, after 7 days
[2] = application rate 500 g/ha, after 7 days

`CON(C)CCOc1cnc(COc2cccc(-c3cccc(Cl)c3)c2)c(F)c1` [Example 80] was tested, and the “efficacy (ticks dead or moribund)” value (Rhipicephalus sanguineus) was 100%, the “efficacy (laying of fertile eggs)” value (Boophilus microplus; [1]) was 100% and the “efficacy (kill in %)” value (Lucilia cuprina) was 100%. It also gave an efficacy (Phaedon cochleariae; [2]) of 100% and an efficacy (Spodoptera frugiperda; [2]) of 83%.
With `CCN(CC)CCOc1ccc(COc2cccc3c(Cl)c(Cl)ccc23)nc1` [Example 33] the “efficacy (laying of fertile eggs)” value (Boophilus microplus; [1]) was 80%, the efficacy (Phaedon cochleariae; [2]) was 100% and the efficacy (Spodoptera frugiperda; [2]) was 100%.
`Fc1cc(OCCN2CCCCC2)cnc1COc1cccc2c(Cl)c(Cl)ccc12` [Example 42] gave an efficacy (Spodoptera frugiperda; [2]) of 100%.
`Fc1cc(OCCN2CCCCC2)cnc1COc1ccc2oc3ccccc3c2c1` [Example 41] gave an efficacy (Tetranychus urticae) of 90%.
`CON(C)CCOc1cnc(COc2ccc(F)c(Br)c2)c(F)c1` [Example 83] was tested, and the “efficacy (laying of fertile eggs)” value (Boophilus microplus; [1]) was 80% and the efficacy (Tetranychus urticae) was 100%.
In the case of `CON(C)CCOc1ccc(COc2cccc3c(Cl)c(Cl)ccc23)nc1Cl` [Example 18], the “efficacy (laying of fertile eggs)” value (Boophilus microplus; [1]) is reported as 100% and the efficacy (Spodoptera frugiperda; [2]) is reported as 100%.
For `CC(C)(C)NCCOc1cnc(COc2cccc3c(Cl)c(Cl)ccc23)c(F)c1` [Example 38], the “efficacy (laying of fertile eggs)” value (Boophilus microplus; [1]) was 100%, the “efficacy (kill in %)” value (Lucilia cuprina) was 80% and the efficacy (Phaedon cochleariae; [2]) was 100%. For the same molecule, the efficacy (Spodoptera frugiperda; [2]) was 100%.
`CON(C)CCOc1ccc(COc2ccc3oc4ccccc4c3c2)nc1` [Example 31] was tested, and the “efficacy (ticks dead or moribund)” value (Rhipicephalus sanguineus) was 100%, the “efficacy (laying of fertile eggs)” value (Boophilus microplus; [1]) was 100% and the “efficacy (kill in %)” value (Lucilia cuprina) was 100%. For the same molecule, the efficacy (Phaedon cochleariae; [2]) was 100% and the efficacy (Spodoptera frugiperda; [2]) was 100%.
With `CON(C)CCOc1ccc(COc2cccc3c(Cl)c(Cl)ccc23)nc1SC` [Example 52, 2-{[6-{[(5,6-dichloro-1-naphthyl)oxy]methyl}-2-(methylsulfanyl)pyridin-3-yl]oxy}-N-methoxy-N-methylethanamine] the pest or weed control at 500 g/ha (Phaedon cochleariae; [2]) was 100% and the pest or weed control at 500 g/ha (Spodoptera frugiperda; [2]) was 100%.
`CON(C)CCOc1cnc(COc2cccc(-c3cccc(F)c3)c2)c(F)c1` [Example 85] was tested, and the efficacy (Spodoptera frugiperda; [2]) was 83%.
Work on `CC(C)N(C)CCOc1cnc(COc2ccc3oc4ccccc4c3c2)c(F)c1` [Example 43] yielded an efficacy (Phaedon cochleariae; [2]) of 100%.
In the case of `COc1cc(OCCN(C)OC)cnc1COc1cccc(-c2ccccc2)c1` [Example 94], the “efficacy (laying of fertile eggs)” value (Boophilus microplus; [1]) is reported as 80%.
`CN(CCOc1cnc(COc2ccc3oc4ccccc4c3c2)c(F)c1)C(C)(C)C.Cl` [Example 35] gave an efficacy (Phaedon cochleariae; [2]) of 83%.
With `CN(CCOc1cnc(COc2cccc3c(Cl)c(Cl)ccc23)c(F)c1)C(C)(C)C` [Example 36, N-{2-[(6-{[(5,6-dichloro-1-naphthyl)oxy]methyl}-5-fluoropyridin-3-yl)oxy]ethyl}-N,2-dimethylpropan-2-amine] the pest or weed control at 0.02 mg (Boophilus microplus; read-out: efficacy (laying of fertile eggs), application rate 20 μg/animal, after 7 days) was 100%, the pest or weed control at 500 g/ha (Phaedon cochleariae) was 100% and the pest or weed control at 500 g/ha (Spodoptera frugiperda) was 100%.
For `CON(C)CCOc1cnc(COc2ccc(Cl)c3ccccc23)c(Cl)c1` [Example 25], the “efficacy (laying of fertile eggs)” value (Boophilus microplus; [1]) was 100% and the efficacy (Spodoptera frugiperda; [2]) was 100%.
Molecule `CON(C)CCOc1ncc(COc2ccc(Cl)c3ccccc23)cn1` [Example 98] has an efficacy (Phaedon cochleariae; [2]) of 100%.
`CCN1CCN(c2cnc(COc3ccc4oc5ccccc5c4c3)c(F)c2)CC1` [Example 46] showed an efficacy (Spodoptera frugiperda; [2]) of 83%.
Work on `CON(C)CCOc1ncc(COc2ccc(Cl)c3ccccc23)cc1Cl` [Example 7] yielded an efficacy (Tetranychus urticae) of 100%.
For `CN(CCOc1cnc(COc2ccc(F)c(-c3cccc(OC(F)(F)F)c3)c2)c(F)c1)C(C)(C)C` [Example 51], the efficacy (Phaedon cochleariae; [2]) was 83%, the efficacy (Spodoptera frugiperda; [2]) was 100% and the efficacy (Tetranychus urticae) was 100%.
In the case of `CN(CCOc1cnc(COc2ccc(F)c(-c3cccc(OC(F)(F)F)c3)c2)c(F)c1)C(C)(C)C.Cl` [Example 77], the “efficacy (kill in %)” value (Lucilia cuprina) is reported as 90%, the efficacy (Phaedon cochleariae; [2]) is reported as 83% and the efficacy (Spodoptera frugiperda; [2]) is reported as 100%.
For `CC(C)N(CCOc1cnc(COc2ccc(Cl)c(OC(F)(F)F)c2)c(F)c1)C(C)C` [Example 79], the efficacy (Phaedon cochleariae; [2]) was 100%.
For `CN(CCOc1cnc(COc2cccc3c(Cl)c(Cl)ccc23)c(F)c1)C(C)(C)C` [Example 37, N-{2-[(6-{[(5,6-dichloro-1-naphthyl)oxy]methyl}-5-fluoropyridin-3-yl)oxy]ethyl}-N,2-dimethylpropan-2-aminium chloride], the “efficacy (fleas dead or moribund)” value (Ctenocephalides felis) was 100%, the “efficacy (laying of fertile eggs)” value (Boophilus microplus; [1]) was 80% and the efficacy (Phaedon cochleariae; [2]) was 100%. It also gave an efficacy (Spodoptera frugiperda; [2]) of 100%.
`CC(C)N(CCOc1cnc(COc2ccc3oc4ccccc4c3c2)c(F)c1)C(C)C` [Example 40] gave an efficacy (Phaedon cochleariae; [2]) of 100%.
Work on `CON(C)CCOc1ccc(COc2ccc3oc4ccccc4c3c2)cn1` [Example 8] yielded an efficacy (Phaedon cochleariae; [2]) of 100% and an efficacy (Spodoptera frugiperda; [2]) of 100%.
In the case of `COc1cc(OCCN(C)OC)cnc1COc1ccc(Cl)c2ccccc12` [Example 91], the “efficacy (laying of fertile eggs)” value (Boophilus microplus; [1]) is reported as 100%, the “efficacy (kill in %)” value (Lucilia cuprina) is reported as 80% and the efficacy (Phaedon cochleariae; [2]) is reported as 83%.
`CON(C)CCOc1ccc(COc2ccc(Cl)c(OC(F)(F)F)c2)nc1` [Example 73] was tested, and the “efficacy (laying of fertile eggs)” value (Boophilus microplus; [1]) was 80% and the efficacy (Tetranychus urticae) was 100%.
In the case of `CN(CCOc1cnc(COc2ccc3oc4ccccc4c3c2)c(F)c1)C(C)(C)C` [Example 34], the “efficacy (laying of fertile eggs)” value (Boophilus microplus; [1]) is reported as 80%, the efficacy (Phaedon cochleariae; [2]) is reported as 100% and the efficacy (Spodoptera frugiperda; [2]) is reported as 100%. The efficacy (Tetranychus urticae) was 90%.
With `CON(C)CCOc1cnc(COc2cccc3c(F)cccc23)c(F)c1` [Example 24] the “efficacy (fleas dead or moribund)” value (Ctenocephalides felis) was 100%, the “efficacy (ticks dead or moribund)” value (Rhipicephalus sanguineus) was 100% and the “efficacy (laying of fertile eggs)” value (Boophilus microplus; [1]) was 100%. It also gave an efficacy (Spodoptera frugiperda; [2]) of 83%.
In the case of `CCN(CC)CCOc1ccc(COc2cccc3c(Cl)c(Cl)ccc23)cn1` [Example 9], the “efficacy (fleas dead or moribund)” value (Ctenocephalides felis) is reported as 100%, the “efficacy (ticks dead or moribund)” value (Rhipicephalus sanguineus) is reported as 100% and the “efficacy (laying of fertile eggs)” value (Boophilus microplus; [1]) is reported as 90%. For the same molecule, the efficacy (Phaedon cochleariae; [2]) was 83% and the efficacy (Spodoptera frugiperda; [2]) was 100%.
`CN(CC#N)CCOc1cnc(COc2cccc3c(Cl)c(Cl)ccc23)c(F)c1` [Example 28] was tested, and the “efficacy (ticks dead or moribund)” value (Rhipicephalus sanguineus) was 100%, the “efficacy (laying of fertile eggs)” value (Boophilus microplus; [1]) was 100% and the “efficacy (kill in %)” value (Lucilia cuprina) was 100%.
With `CN(CCOc1cnc(COc2cccc(-c3cccc(OC(F)(F)F)c3)c2)c(F)c1)C(C)(C)C` [Example 66] the efficacy (Phaedon cochleariae; [2]) was 100% and the efficacy (Spodoptera frugiperda; [2]) was 100%.
In the case of `CCN1CCN(c2cnc(COc3cccc4c(Cl)c(Cl)ccc34)c(F)c2)CC1` [Example 45], the efficacy (Phaedon cochleariae; [2]) is reported as 100% and the efficacy (Spodoptera frugiperda; [2]) is reported as 100%.
`CCN(CC)CCOc1cnc(COc2cccc3c(Cl)c(Cl)ccc23)c(F)c1` [Example 32, 2-[(6-{[(5,6-dichloro-1-naphthyl)oxy]methyl}-5-fluoropyridin-3-yl)oxy]-N,N-diethylethanamine] was tested, and the “efficacy (fleas dead or moribund)” value (Ctenocephalides felis) was 100%, the pest or weed control at 0.02 mg (Boophilus microplus; application rate 20 μg/animal, after 7 days, read-out: efficacy (laying of fertile eggs)) was 100% and the pest or weed control at 500 g/ha (Spodoptera frugiperda; [2]) was 100%. The efficacy (Tetranychus urticae) was 90%.
With `COc1cc(OCCN(C)OC)cnc1COc1cccc2c(Cl)c(Cl)ccc12` [Example 93] the “efficacy (laying of fertile eggs)” value (Boophilus microplus; [1]) was 100% and the “efficacy (kill in %)” value (Lucilia cuprina) was 100%.
